In patent publication US9708259B2 (Hoffmann-La Roche Inc., priority 2013, dated 2017):
Residue numbers refer to the chain shown, from its start. Like-named read-outs stand apart in the source and are kept apart here.

Columns and labels:
ratM1 = biological target: T1, ratM1 (Rattus norvegicus, UniProt P08482); assay: M1 PAM assay (FLIPR intracellular calcium), rat M1; assay type: cell-based
T1 construct: expressed in transfected cells; host or cells: CHO cells (stated generally for the assay, not specifically for rat M1)
T1 sequence (P08482 1-460): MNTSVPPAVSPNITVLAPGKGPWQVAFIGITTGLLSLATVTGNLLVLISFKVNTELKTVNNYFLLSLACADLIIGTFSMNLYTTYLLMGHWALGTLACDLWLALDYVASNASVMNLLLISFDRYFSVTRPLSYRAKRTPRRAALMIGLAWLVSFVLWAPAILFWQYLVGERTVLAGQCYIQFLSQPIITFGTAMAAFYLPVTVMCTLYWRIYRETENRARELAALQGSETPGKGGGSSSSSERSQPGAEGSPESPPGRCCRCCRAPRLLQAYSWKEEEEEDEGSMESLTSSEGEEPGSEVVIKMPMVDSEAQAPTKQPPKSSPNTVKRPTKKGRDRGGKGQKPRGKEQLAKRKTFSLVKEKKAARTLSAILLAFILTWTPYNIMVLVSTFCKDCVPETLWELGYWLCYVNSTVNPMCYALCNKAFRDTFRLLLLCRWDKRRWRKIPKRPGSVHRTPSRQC

human M1 = biological target: T2, human M1 (Homo sapiens, UniProt P11229); assay: M1 PAM assay (FLIPR intracellular calcium), human M1; assay type: cell-based
T2 construct: expressed in transfected cells; host or cells: CHO cells
T2 sequence (P11229 1-460): T1 sequence (P08482 1-460) with V5A, S254T, S309P, K320R, G337A, V413I
Outline: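 CHO cells expressing M1, Fluo-4AM-loaded, in HEPES/probenecid HBSS pH 7.4, 1% DMSO final. Compounds pre-incubated 2 min for agonist activity versus 30 nM acetylcholine control. For PAM activity, acetylcholine EC20 added after the 2 min pre-incubation, then 2 min more before FLIPR intracellular Ca2+ read.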

APP processing = details: cited from earlier work
[1] = cited from earlier work
[2] = rat M1, FLIPR Ca2+, second value of the cell, read-out: ratM1 EC50
[3] = CHO human M1 cells, FLIPR Ca2+, with EC20 of acetylcholine, first value of the cell, read-out: hM1 EC50

COc1ccc(F)c2c(C(=O)NC3CCOCC3)cn(Cc3ccc4c(cnn4C)c3)c12 [Example 154, 4-fluoro-7-methoxy-1-((1-methyl-1H-indazol-5-yl)methyl)-N-(tetrahydro-2H-pyran-4-yl)-1H-indole-3-carboxamide]
EC50 (ratM1): 837 nM
EC50 (human M1): 272 nM

O=C(N[C@H]1CCCC[C@@H]1O)c1cn(Cc2ccc(-c3ccn[nH]3)cc2)c2cccc(F)c12 [Example 155, 1-(4-(1H-Pyrazol-5-yl)benzyl)-4-fluoro-N-((1S,2S)-2-hydroxycyclohexyl)-1H-indole-3-carboxamide]
EC50 (ratM1; [2]): 5 nM
EC50 (human M1; [3]): 11 nM

O=C(N[C@H]1CCCC[C@@H]1O)c1cn(Cc2ccc(-c3nc[nH]n3)cc2)c2cccc(F)c12 [Example 156, 1-(4-(1H-1,2,4-triazol-3-yl)benzyl)-4-fluoro-N-((1S,2S)-2-hydroxycyclohexyl)-1H-indole-3-carboxamide]
EC50 (ratM1; [2]): 10 nM
EC50 (human M1; [3]): 3 nM

O=C(NC1CCOCC1)c1cn(Cc2ccc(-c3nc[nH]n3)cc2)c2cccc(F)c12 [Example 157, 1-(4-(1H-1,2,4-triazol-3-yl)benzyl)-4-fluoro-N-(tetrahydro-2H-pyran-4-yl)-1H-indole-3-carboxamide]
EC50 (ratM1; [2]): 117 nM
EC50 (human M1; [3]): 95 nM

O=C(N[C@H]1CCCC[C@@H]1O)c1cn(Cc2ccc(-c3cncnc3)cc2)c2cccc(F)c12 [Example 158, 4-Fluoro-N-((1S,2S)-2-hydroxycyclohexyl)-1-(4-(pyrimidin-5-yl)benzyl)-1H-indole-3-carboxamide]
EC50 (ratM1; [2]): 61 nM
EC50 (human M1; [3]): 23 nM

O=C(N[C@H]1CCCC[C@@H]1O)c1cn(Cc2ccc(-c3cccnc3)cc2)c2cccc(F)c12 [Example 159, 4-Fluoro-N-((1S,2S)-2-hydroxycyclohexyl)-1-(4-(pyridin-3-yl)benzyl)-1H-indole-3-carboxamide]
EC50 (ratM1; [2]): 47 nM
EC50 (human M1; [3]): 20 nM

O=C(N[C@H]1CCCC[C@@H]1O)c1cn(Cc2ccc(N3CCCC3)cc2)c2cccc(F)c12 [Example 161, 4-fluoro-N-((1S,2S)-2-hydroxycyclohexyl)-1-(4-(pyrrolidin-1-yl)benzyl)-1H-indole-3-carboxamide]
EC50 (ratM1; [2]): 307 nM
EC50 (human M1; [3]): 121 nM

O=C(N[C@H]1CCCC[C@@H]1O)c1cn(Cc2ccc(N3CCCC3)nc2)c2cccc(F)c12 [Example 162, 4-fluoro-N-((1S,2S)-2-hydroxycyclohexyl)-1-((6-(pyrrolidin-1-yl)pyridin-3-yl)methyl)-1H-indole-3-carboxamide]
EC50 (ratM1; [2]): 751 nM
EC50 (human M1; [3]): 214 nM

CNC(=O)c1ccc(Cn2cc(C(=O)NC3CCOCC3)c3c(F)cccc32)cc1F [Example 163, 4-Fluoro-1-(3-fluoro-4-(methylcarbamoyl)benzyl)-N-(tetrahydro-2H-pyran-4-yl)-1H-indole-3-carboxamide]
EC50 (ratM1; [2]): 82 nM
EC50 (human M1; [3]): 59 nM

CNC(=O)c1ccc(Cn2cc(C(=O)NC3CCOCC3)c3c(F)cccc32)c(F)c1 [Example 164, 4-Fluoro-1-(2-fluoro-4-(methylcarbamoyl)benzyl)-N-(tetrahydro-2H-pyran-4-yl)-1H-indole-3-carboxamide]
EC50 (ratM1; [2]): 88 nM
EC50 (human M1; [3]): 48 nM

Cc1cc(NC(=O)CS(=O)(=O)c2cn(Cc3cc(Br)ccc3F)c3ccccc23)no1 [ML169]
non-amyloidogenic APP processing (APP processing): promote non-amyloidogenic APP processing

CCCCCCOc1nsnc1C1=CCCN(C)C1 [Xanomeline]
cognitive scores and psychotic-like behaviors in patients with Alzheimer's disease ([1]; clinical studies, patients with Alzheimer's disease (AD)): improved cognitive scores and reduced psychotic-like behaviors
efficacy on symptoms in schizophrenic patients ([1]; clinical studies, schizophrenic patients): robust efficacy on positive, negative and cognitive symptoms
adverse effects (sweating, salivation, gastrointestinal distress, bradycardia) ([1]; clinical, attributed to insufficient M1 subtype selectivity): always associated with adverse effects
